The nature of data set [1]: Acute toxicity test in mice, intraperitoneal. Conditions: mouse, in vivo, ip, 7 days observation. As to the method: Animals used: ddY male mice (SLC Japan), 4-5 weeks old, three to five mice per group.
Test method: The compound of the present invention was suspended in 0.5% sodium carboxymethylcellulose (CMC-Na) containing 0.1% Tween 80. It was administered to the mice intraperitoneally in amounts of 250, 500 or 1000 mg/kg in groups of three to five mice. The survival of the animals was observed up until 7 days after administration and LD50 value was calculated according to a Probit method.

In data set [2] the test system is VCR resistant murine leukemia (P388/VCR) cells. In words: In vivo overcoming of resistance in VCR resistant murine leukemia (P388/VCR) bearing mice, etoposide with compound 20 mg/kg. Details: species or system CDF1 female mice. Conditions: VP-16 3 mg/kg + compound 20 mg/kg, i.v. once per day for 5 days; for Rate of prolongation of life T/C: vs control. As to the method: In Vivo Test of Action Suppressing Proliferation of Cancer Cells by Combined Administration of Anti-cancer Drug Etoposide
Effect of Overcoming Resistance to an Anti-cancer Drug for VCR Resistant Murine Leukemia Cell Bearing Mice
1.2×10^5 VCR resistant murine leukemia (P388/VCR) cells were transplanted intravenously into groups of 5-6 CDF1 female mice, then the compound of the present invention (20 mg/kg) and Etoposide (VP-16) (3 mg/kg) were administered intravenously once per day for 5 days, after dissolving them in a physiological salt solution containing a small amount of hydrochloric acid. The observation was started from the next day. The number of survival days were found and the life prolonging rate (T/C) with respect to the controls was found. The effect in overcoming resistance to an anti-cancer drug (T/V) was found by the following formula.
Effect of overcoming resistance to the anti-cancer drug (T/V) %
=[(Rate of prolongation of life using VP-16 and the present compound (T/C))/(Rate of prolongation of life using VP-16 alone (T/C))]×100

Data set [3] relates to KB/VJ 300 cells. In words: Degree of resistance to VCR in multi-drug resistant VJ-300 cells on combined administration of vincristine and test compound. The format is cell-based, human. To be noted: relative to KB = 1. As to the method:
Human rhinopharynx cancer derived KB cells (i.e., sensitive cells) and their multi-drug resistant clone KB/VJ 300 cells (i.e., resistant cells) were used as the test cells. As the incubation solutions, use was made of 10% fetal calf serum (Flow Laboratories) and Eagle MEM medium (Nissui Seiyaku) containing 0.292 mg/ml of L-glutamine (Flow Laboratories). The tests of the action for overcoming resistance to anti-cancer drugs or […]
The test cells were suspended in incubation solutions and adjusted to a cell density of about 200 cells/ml. The cell suspensions were injected in 2 ml amounts into petri dishes and were incubated in a CO2 gas incubator (5% CO2, 95% air) at 37° C. for 24 hours. […] After the end of the incubation, the result was immobilized with methanol, Tripan blue stained and measured for the number of colonies per dish. The results were used to prepare a volume-reaction curve. From this, the ADM concentration of the 50% cell survival rate (LD50 ) was calculated and the effect for overcoming resistance to anti-cancer drugs and the effect for increasing the effect of anti-cancer drugs were judged. The results are shown in Table 12 to Table 14 using the concentration of LD50 of ADM in the ADM alone group when KB cells were used as the resistance degree 1 and calculating the resistances of the following LD50 concentrations as relative ratios. […]

The subject of data set [4] is multidrug resistance. Conditions: literature statement in words; cited from earlier work.
Data set [5] deals with thoracic aorta of the rat. In words: Action easing KCl contraction in rat arteries. To be noted: rat thoracic aorta ring, 50 mM KCl, compound 10^-6 M; read-out: Inhibitory rate of hyperpotassium contraction at 10^-6 M. As to the method:
Action Easing KCl Contraction in Rat Arteries
The specimen was stabilized for approximately 60 minutes, then a potassium chloride solution was added to the Magnus tube to give a final concentration of 50 mM. The positive control compound or the compound of the present invention was cumulatively added to become 1×10^-6 M when the contraction reaction occurring at that time reached equilibrium. The contraction force was recorded by an FD-pickup (Nihon Koden) via a polygraph (Nihon Koden).

Data set [6] relates to KB/VJ 300 cells. Briefly: Degree of resistance to ADM (ratio of ADM LD50 concentrations) in multi-drug resistant KB/VJ 300 cells on combined administration of doxorubicin and test compound. Type of data set: cell-based, human. To be noted: VJ-300 (resistant) cells; ADM + test compound 1 μg/ml; relative to ADM alone in KB = 1. The protocol:
In Vitro Test of Action Suppressing Proliferation of Cancer Cells combined administration of Doxorubicin
Human rhinopharynx cancer derived KB cells (i.e., sensitive cells) and their multi-drug resistant clone KB/VJ 300 cells (i.e., resistant cells) were used as the test cells. As the incubation solutions, use was made of 10% fetal calf serum (Flow Laboratories) and Eagle MEM medium (Nissui Seiyaku) containing 0.292 mg/ml of L-glutamine (Flow Laboratories). The tests of the action for overcoming resistance to anti-cancer drugs or action for increasing the effect of the anti-cancer drug with the combined administration of the anti-cancer drug doxorubicin (i.e., adriamycin, ADM) and the test compound were performed as follows:
The test cells were suspended in incubation solutions and adjusted to a cell density of about 200 cells/ml. The cell suspensions were injected in 2 ml amounts into petri dishes and were incubated in a CO2 gas incubator (5% CO2, 95% air) at 37° C. for 24 hours. Then, 5-10 μl of a predetermined concentration of the aqueous ADM solution and a predetermined concentration of a DMSO solution of the test compound were added, then the incubation was continued for a further 6 days. After the end of the incubation, the result was immobilized with methanol, Tripan blue stained and measured for the number of colonies per dish. […]

A word on the LD50: it is the dose at which mortality reaches 50%. A low value points to greater toxicity. Molecule `CCOC(=O)C1=C(c2ccc(-n3c(C)nc4cnccc43)cc2)NC(C)=C(C(=O)OCC#Cc2cccnc2)C1CCc1ccccc1` (stereo not drawn) [Compound 9, 6-Methyl-2-[4-(2-methylimidazo[4,5-c]pyridin-1-yl)phenyl]-4-(2-phenylethyl)-1,4-dihydropyridin-3,5-dicarboxylate 3-ethylester 5-[3-(3-pyridyl)-2-propynyl]ester] gave an LD50 at 168 h in data set [1] of over 1000 mg/kg. Also, in data set [2], the “Average days of survival” value turned out to be 15.0 days and the “Rate of prolongation of life T/C” value stood at 163%.

`CC[C@]1(O)C[C@H]2CN(CCc3c([nH]c4ccccc34)[C@@](C(=O)OC)(c3cc4c(cc3OC)N(C=O)[C@H]3[C@@](O)(C(=O)OC)[C@H](OC(C)=O)[C@]5(CC)C=CCN6CC[C@]43[C@@H]65)C2)C1` [VCR, vincristine]: in data set [3], the “Degree of resistance for VCR, VJ-300 (VCR alone, control)” value is reported as 903-970.

For `COC(=O)C1=C(C)NC(C)=C(C(=O)OCCN(C)Cc2ccccc2)C1c1cccc([N+](=O)[O-])c1` (stereo not drawn) [nicardipine, reference compound], in data set [4], the “effect of combined administration with an anti-cancer drug on multidrug resistance” value is listed as “effective”. The inhibition at 1 µM in data set [5] came out at 100%.

For “6-Methyl-2-[4-(2-methylimidazo[4,5-b]pyridin-1-yl)phenyl]-4-pentyl-1,4-dihydropyridin-3,5-dicarboxylate 3-ethylester 5-[3-(3-pyridyl)2-propynyl]ester [Compound 52]”, the “Degree of resistance for ADM, VJ-300” value in data set [6] worked out at 1.60.

In the case of “6-Methyl-2-[4-(2-methylimidazo[4,5-b]pyridin-1-yl)phenyl]-4-(2-phenylethyl)-1,4-dihydropyridin-3,5-dicarboxylate 3-ethylester 5-[3-(3-pyridyl)-2-propynyl]ester [Compound 51]”, the “Degree of resistance for ADM, VJ-300” value in data set [6] worked out at 1.43.

For `CCCCCC1C(C(=O)OC(C)C#Cc2cccnc2)=C(C)NC(c2ccc(-n3c(C)nc4cnccc43)cc2)=C1C(=O)OCC` (stereo not drawn) [Compound 22, 6-Methyl-2-[4-(2-methylimidazo[4,5-c]pyridin-1-yl)phenyl]-4-pentyl-1,4-dihydropyridin-3,5-dicarboxylate 3-ethylester 5-[1-methyl-3-(3-pyridyl)-2-propynyl]ester], the LD50 at 168 h in data set [1] was over 1000 mg/kg. Also, in data set [2], the “Average days of survival” value worked out at 14.6 days and the “Rate of prolongation of life T/C” value was determined as 159%. In addition, the inhibition at 1 µM in data set [5] worked out at 0%.

Values taken from patent US6306853A, “1,4-Dihydropyridine derivatives” (Nikken Chemicals Co., Ltd., priority 1998, dated 2001).
